Measured values from patent publication US9809598B2 (Merck Patent GmbH, priority 2014, dated 2017).
Like-named read-outs stand apart in the source and are kept apart here. Each block holds one compound with its values, some of them ahead of it.

What was measured:
TNKS1 = molecular target: T1, TNKS1 (Homo sapiens, UniProt O95271); test: TNKS1 activity ELISA (autoparsylation assay); format: biochemical; conditions: GST-tagged Tnks-1 (1023-1327 aa)
T1 construct: GST-tagged Tnks-1 (1023-1327 aa, prepared in-house); made in house
Procedure: (§1) Description of the TNKS1 and TNKS2 ELISA Assay
(§2) Biochemical Activity Testing of TNKS 1 and 2: Activity ELISA (Autoparsylation Assay)
(§3) For analysis of autoparsylation activity of TNKS 1 and 2 an activity ELISA iss performed: In the first step GST tagged TNKS is captured on a Glutathione coated plate. Then the activity assay with biotinylated NAD is performed in the absence/presence of the compounds. During the enzymatic reaction GST tagged TNKS transfers biotinylated ADP-ribose to itself from biotinylated NAD as co-substrate. For the detection streptavidin-HRP conjugate is added that binds to the biotinylated TNKS and is thereby captured to the plates. The amount of biotinylated resp. autoparsylated TNKS is detected with a luminescence substrate for HRP. The level of the luminescence signal correlats directly with the amount of autoparsylated TNKS and therefore with activity of TNKS.
(§4) The activity ELISA is performed in 384 well Glutathione coated microtiter plates (Express capture Glutathione coated plate, Biocat, Heidelberg, Germany). The plates are pre-equilibrated with PBS. […] The plates are washed 3 times with PBS-Tween-20. The wells are blocked by incubation at room temperature for 20 minutes with 50 μl blocking buffer (PBS, 0.05% Tween-20, 0.5% BSA). Afterwards the plates are washed 3 times with PBS-Tween-20. […] The reaction is stopped by 3 times washing with PBS-Tween-20. For the detection 50 μl of 20 ng/μl Streptavidin, HRP conjugate (MoBiTec, Göttingen, Germany) in PBS/0.05% Tween-20/0.01% BSA are added and the plates are incubated for 30 minutes at room temperature. After three times washing with PBS-Tween-20 50 μl of SuperSignal ELISA Femto Maximum sensitivity substrate solution (ThermoFisherScientific (Pierce), Bonn, Germany) are added. Following a 1 minute incubation at room temperature luminescence signals are measured with an Envision multimode reader (Perkin Elmer LAS Germany GmbH) at 700 nm. The full value used is the inhibitor-free reaction. […] The inhibitory values (IC50) are determined using either the program Symyx Assay Explorer® or Condosseo® from GeneData.

Tankyrases = conditions: read-out: EC50 [M] TNKS cellular assay; DLD1 cells, 24 hours, Axin2 increase
Procedure: Measurement of Cellular Inhibition of Tankyrase
Cells of the colon carcinoma cell line DLD1 are plated in 96 well plates with 1.5×10^4 cells per well. Next day, cells are treated with a serial dilution of test compound in seven steps as triplicates with a final DMSO concentration of 0.3%. […] The amount of isolated Axin2 protein is determined in a Luminex^200 machine (Luminex Corporation) according to the manufacturer's instruction by counting 100 events per well. […] As controls cells are treated with solvent alone (neutral control) and with a Tankyrase reference inhibitor IWR-2 (3E−06 M) which refers as control for maximum increase of Axin2. For analysis, the obtained data are normalized against the untreated solvent control and fitted for determination of the EC50 values using the Assay Explorer software (Accelrys).

PARP-1 = molecular target: T2, PARP-1 (Homo sapiens, UniProt P09874); test: PARP-1 autoparsylation assay (HTRF); format: biochemical; conditions: His-tagged Parp-1, autoparsylation HTRF
T2 construct: purchased Enzo Life Sciences GmbH, Lörrach, Germany
Source text: Description of the PARP1 Assay
Biochemical Activity Testing of PARP-1: Autoparsylation Assay
The autoparsylation assay is run in two steps: the enzymatic reaction in which His-tagged Parp-1 transfers biotinylated ADP-ribose/ADP-ribose to itself from biotinylated NAD/NAD as co-substrate and the detection reaction where a time resolved FRET between cryptate labelled anti-His antibody bound to the His tag of the enzyme and Xlent® labelled-streptavidin bound the biotin-parsylation residue is analysed. The autoparsylation activity is detectable directly via the increase in HTRF signal.
The autoparsylation assay is performed as 384-well HTRF® (Cisbio, Codolet, France) assay format in Greiner low volume nb 384-well microtiter plates. […] The ratio of the emission signals is determined. The full value used is the inhibitor-free reaction. The pharmacological zero value used is Olaparib (LClabs, Woburn, US) in a final concentration of 1 μM. The inhibitory values (IC50) are determined using either the program Symyx Assay Explorer® or Condosseo® from GeneData.

TNKS2 = molecular target: T3, TNKS2 (Homo sapiens, UniProt Q9H2K2); test: TNKS2 activity ELISA (autoparsylation assay); format: biochemical
T3 construct: GST-tagged Tnks-2 (873-1166 aa, prepared in-house); made in house
Procedure: as §1, §2, §3, §4

[1] = GST-tagged Tnks-2 (873-1166 aa), read-out: IC50 [M] TNKS2 ELISA

T3 sequence (Q9H2K2 873-1166): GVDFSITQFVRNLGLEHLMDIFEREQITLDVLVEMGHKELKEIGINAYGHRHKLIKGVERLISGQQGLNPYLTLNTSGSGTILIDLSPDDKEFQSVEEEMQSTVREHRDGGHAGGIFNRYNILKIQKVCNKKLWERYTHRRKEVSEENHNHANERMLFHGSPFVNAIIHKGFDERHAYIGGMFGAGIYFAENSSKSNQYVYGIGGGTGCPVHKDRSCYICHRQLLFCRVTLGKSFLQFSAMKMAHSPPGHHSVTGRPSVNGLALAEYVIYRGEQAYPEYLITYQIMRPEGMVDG
T1 sequence (O95271 1023-1327): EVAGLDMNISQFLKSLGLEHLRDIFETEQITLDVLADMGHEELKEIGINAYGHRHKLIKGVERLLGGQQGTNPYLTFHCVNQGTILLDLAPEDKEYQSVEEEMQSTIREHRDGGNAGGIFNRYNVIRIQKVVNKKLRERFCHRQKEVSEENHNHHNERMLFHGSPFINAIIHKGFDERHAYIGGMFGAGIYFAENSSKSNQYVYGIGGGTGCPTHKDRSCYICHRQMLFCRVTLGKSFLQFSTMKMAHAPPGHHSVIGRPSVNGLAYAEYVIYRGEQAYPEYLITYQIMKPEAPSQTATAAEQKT
T2 sequence (P09874 whole entry): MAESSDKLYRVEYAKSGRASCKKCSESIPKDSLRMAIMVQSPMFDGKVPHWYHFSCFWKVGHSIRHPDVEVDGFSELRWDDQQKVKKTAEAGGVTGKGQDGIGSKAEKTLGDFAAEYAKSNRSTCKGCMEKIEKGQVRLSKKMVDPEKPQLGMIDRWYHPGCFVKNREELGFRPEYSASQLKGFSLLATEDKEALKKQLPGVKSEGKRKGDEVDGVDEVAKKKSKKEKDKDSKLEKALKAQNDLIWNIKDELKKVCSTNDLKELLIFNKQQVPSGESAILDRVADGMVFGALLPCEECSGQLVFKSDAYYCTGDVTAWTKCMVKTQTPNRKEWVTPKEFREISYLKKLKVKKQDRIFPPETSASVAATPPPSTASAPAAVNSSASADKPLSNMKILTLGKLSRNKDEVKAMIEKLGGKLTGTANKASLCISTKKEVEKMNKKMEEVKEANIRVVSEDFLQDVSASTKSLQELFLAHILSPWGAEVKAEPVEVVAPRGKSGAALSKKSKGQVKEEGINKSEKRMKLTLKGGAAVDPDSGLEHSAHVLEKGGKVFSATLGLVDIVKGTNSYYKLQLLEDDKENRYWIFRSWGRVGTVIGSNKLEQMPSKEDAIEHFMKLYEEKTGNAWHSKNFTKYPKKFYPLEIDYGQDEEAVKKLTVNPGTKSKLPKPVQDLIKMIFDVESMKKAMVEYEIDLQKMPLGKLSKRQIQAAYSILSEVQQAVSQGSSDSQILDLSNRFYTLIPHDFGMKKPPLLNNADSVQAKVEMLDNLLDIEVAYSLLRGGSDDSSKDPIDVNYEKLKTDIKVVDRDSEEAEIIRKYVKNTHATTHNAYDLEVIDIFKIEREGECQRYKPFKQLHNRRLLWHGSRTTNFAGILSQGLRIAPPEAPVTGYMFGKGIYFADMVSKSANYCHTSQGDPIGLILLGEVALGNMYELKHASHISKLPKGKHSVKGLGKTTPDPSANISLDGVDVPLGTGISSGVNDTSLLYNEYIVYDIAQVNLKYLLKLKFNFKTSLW

Compound: COc1ccc(C(=O)C2CCN(C(=O)CCCc3cn4c(C)ccc4c(=O)[nH]3)CC2)cc1C [Compound C3, 3-{4-[4-(4-Methoxy-3-methyl-benzoyl)-piperidin-1-yl]-4-oxo-butyl}-6-methyl-2H-pyrrolo[1,2-a]pyrazin-1-one]
IC50 (TNKS1): 0.14 nM
EC50 (Tankyrases): 2.9e-10 M
IC50 (PARP-1): 820 nM
IC50 (TNKS2; [1]): 1.7e-10 M

Compound: N#Cc1ccc(OC2CCN(C(=O)CCCc3cn4cccc4c(=O)[nH]3)CC2)cc1 [Compound C5, 4-{1-[4-(1-Oxo-1,2-dihydro-pyrrolo[1,2-a]pyrazin-3-yl)-butyryl]-piperidin-4-yloxy}-benzonitrile]
IC50 (TNKS1): 0.13 nM
EC50 (Tankyrases): 1.2e-07 M
IC50 (PARP-1): 4300 nM
IC50 (TNKS2; [1]): 8.8e-09 M

Compound: O=C(CCCc1cn2cccc2c(=O)[nH]1)N1CCC(c2nnc(-c3ccccc3)o2)CC1 [Compound C6, 3-{4-Oxo-4-[4-(5-phenyl-[1,3,4]oxadiazol-2-yl)-piperidin-1-yl]-butyl}-2H-pyrrolo[1,2-a]pyrazin-1-one]
IC50 (TNKS1): 1.9 nM
EC50 (Tankyrases): 2.8e-08 M
IC50 (PARP-1): 3700 nM
IC50 (TNKS2; [1]): 1.3e-09 M

Compound: Cc1ccc2c(=O)[nH]c(CCCC(=O)N3CCC(Oc4ccc(C#N)cc4)CC3)cn12 [Compound C7, 4-{1-[4-(6-Methyl-1-oxo-1,2-dihydro-pyrrolo[1,2-a]pyrazin-3-yl)-butyryl]-piperidin-4-yloxy}-benzonitrile]
IC50 (TNKS1): 2.6 nM
EC50 (Tankyrases): 4.7e-08 M
IC50 (PARP-1): 1800 nM
IC50 (TNKS2; [1]): 2e-09 M

Compound: COc1ccc(C(=O)C2CCN(C(=O)CCCc3cn4cc(C)cc4c(=O)[nH]3)CC2)cc1 [Compound C8, 3-{4-[4-(4-Methoxy-benzoyl)-piperidin-1-yl]-4-oxo-butyl}-7-methyl-2H-pyrrolo[1,2-a]pyrazin-1-one]
IC50 (TNKS1): < 0.1 nM
EC50 (Tankyrases): 2.8e-09 M
IC50 (PARP-1): 2900 nM
IC50 (TNKS2; [1]): 1.6e-10 M

Compound: COc1ccc(C(=O)C2CCN(C(=O)CCCc3cn4c(Cl)ccc4c(=O)[nH]3)CC2)cc1 [Compound C11, 6-Chloro-3-{4-[4-(4-methoxy-benzoyl)-piperidin-1-yl]-4-oxo-butyl}-2H-pyrrolo[1,2-a]pyrazin-1-one]
IC50 (TNKS1): 0.14 nM
EC50 (Tankyrases): 9e-10 M
IC50 (PARP-1): 2700 nM
IC50 (TNKS2; [1]): 1.6e-10 M

Compound: COc1ccc(C(=O)C2CCN(C(=O)CCCc3cn4cccc4c(=O)[nH]3)CC2)cn1 [Compound C15, 3-{4-[4-(6-Methoxy-pyridine-3-carbonyl)-piperidin-1-yl]-4-oxo-butyl}-2H-pyrrolo[1,2-a]pyrazin-1-one]
IC50 (TNKS1): 0.23 nM
EC50 (Tankyrases): 1.5e-09 M
IC50 (PARP-1): 1700 nM
IC50 (TNKS2; [1]): 1.7e-10 M

IC50 (TNKS1): 0.12 nM
IC50 (PARP-1): 17000 nM
IC50 (TNKS2; [1]): 1.4e-10 M
Compound: COc1ccc(C(=O)C2CCN(C(=O)CCCc3cn4c(C)cnc4c(=O)[nH]3)CC2)cc1 [Compound C32, 6-{4-[4-(4-Methoxybenzoyl)-1-piperidyl]-4-oxo-butyl}-3-methyl-7H-imidazo[1,2-a]pyrazin-8-one]

Compound: O=C(CCCc1nc2c(c(=O)[nH]1)COCC2)N1CCC(c2nnc(-c3ccccc3)o2)CC1 [Compound C196, 2-{4-Oxo-4-[4-(5-phenyl-[1,3,4]oxadiazol-2-yl)-piperidin-1-yl]-butyl}-3,5,7,8-tetrahydro-pyrano[4,3-d]pyrimidin-4-one]
EC50 (Tankyrases): 2e-06 M
IC50 (PARP-1): 6500 nM
IC50 (TNKS2): 5.7e-08 M

Compound: Cc1ccc2c(=O)[nH]c(CCCC(=O)N3CCC(C(=O)c4cnn(C(C)C)c4)CC3)cn12 [Compound C211, 3-{4-[4-(1-Isopropyl-1H-pyrazole-4-carbonyl)-piperidin-1-yl]-4-oxo-butyl}-6-methyl-2H-pyrrolo[1,2-a]pyrazin-1-one]
EC50 (Tankyrases): 1.4e-08 M
IC50 (PARP-1): 14000 nM
IC50 (TNKS2): 2.8e-10 M

IC50 (TNKS1): 0.39 nM
IC50 (PARP-1): 5600 nM
IC50 (TNKS2; [1]): 1.3e-09 M
Compound: CC(C)n1cc(C(=O)C2CCN(C(=O)CCCc3cn4c(F)ccc4c(=O)[nH]3)CC2)cn1 [Compound C212, 6-Fluoro-3-{4-[4-(1-isopropyl-1H-pyrazole-4-carbonyl)-piperidin-1-yl]-4-oxo-butyl}-2H-pyrrolo[1,2-a]pyrazin-1-one]
